Source: ChEMBL document CHEMBL5252617, “Design, synthesis and biological evaluation of novel N-(methyl-d3) pyridazine-3-carboxamide derivatives as TYK2 inhibitors” (Bioorg Med Chem Lett, 2023)

Legend:
[1] = molecular target: CYP2C9 (Homo sapiens, UniProt P11712); test: Inhibition of CYP2C9 (unknown origin) at 1 uM relative to control; format: ADME
[2] = molecular target: T1, CYP1A2 (Homo sapiens, UniProt P05177); test: Inhibition of CYP1A2 (unknown origin) at 1 uM relative to control; format: ADME
T1 sequence (P05177 whole entry): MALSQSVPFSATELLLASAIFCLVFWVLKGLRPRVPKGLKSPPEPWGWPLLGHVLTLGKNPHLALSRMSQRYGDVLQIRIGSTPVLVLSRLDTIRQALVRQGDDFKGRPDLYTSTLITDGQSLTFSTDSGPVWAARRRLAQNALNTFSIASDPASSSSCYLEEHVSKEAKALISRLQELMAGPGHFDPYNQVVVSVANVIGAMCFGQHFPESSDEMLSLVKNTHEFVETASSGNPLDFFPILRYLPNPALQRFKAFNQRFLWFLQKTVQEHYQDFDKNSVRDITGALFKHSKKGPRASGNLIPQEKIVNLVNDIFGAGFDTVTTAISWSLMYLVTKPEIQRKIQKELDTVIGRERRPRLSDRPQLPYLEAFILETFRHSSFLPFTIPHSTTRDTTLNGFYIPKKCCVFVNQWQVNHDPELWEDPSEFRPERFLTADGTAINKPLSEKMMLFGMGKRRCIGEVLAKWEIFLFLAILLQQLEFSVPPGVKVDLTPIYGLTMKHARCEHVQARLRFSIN

[3] = molecular target: Tyrosine-protein kinase JAK2 (Homo sapiens, UniProt O60674); test: Inhibition of JAK2 dependent GM-CSF stimulated STAT3 phosphorylation in human TF-1 cells; format: cell-based
Sequence of Tyrosine-protein kinase JAK2 (O60674 whole entry): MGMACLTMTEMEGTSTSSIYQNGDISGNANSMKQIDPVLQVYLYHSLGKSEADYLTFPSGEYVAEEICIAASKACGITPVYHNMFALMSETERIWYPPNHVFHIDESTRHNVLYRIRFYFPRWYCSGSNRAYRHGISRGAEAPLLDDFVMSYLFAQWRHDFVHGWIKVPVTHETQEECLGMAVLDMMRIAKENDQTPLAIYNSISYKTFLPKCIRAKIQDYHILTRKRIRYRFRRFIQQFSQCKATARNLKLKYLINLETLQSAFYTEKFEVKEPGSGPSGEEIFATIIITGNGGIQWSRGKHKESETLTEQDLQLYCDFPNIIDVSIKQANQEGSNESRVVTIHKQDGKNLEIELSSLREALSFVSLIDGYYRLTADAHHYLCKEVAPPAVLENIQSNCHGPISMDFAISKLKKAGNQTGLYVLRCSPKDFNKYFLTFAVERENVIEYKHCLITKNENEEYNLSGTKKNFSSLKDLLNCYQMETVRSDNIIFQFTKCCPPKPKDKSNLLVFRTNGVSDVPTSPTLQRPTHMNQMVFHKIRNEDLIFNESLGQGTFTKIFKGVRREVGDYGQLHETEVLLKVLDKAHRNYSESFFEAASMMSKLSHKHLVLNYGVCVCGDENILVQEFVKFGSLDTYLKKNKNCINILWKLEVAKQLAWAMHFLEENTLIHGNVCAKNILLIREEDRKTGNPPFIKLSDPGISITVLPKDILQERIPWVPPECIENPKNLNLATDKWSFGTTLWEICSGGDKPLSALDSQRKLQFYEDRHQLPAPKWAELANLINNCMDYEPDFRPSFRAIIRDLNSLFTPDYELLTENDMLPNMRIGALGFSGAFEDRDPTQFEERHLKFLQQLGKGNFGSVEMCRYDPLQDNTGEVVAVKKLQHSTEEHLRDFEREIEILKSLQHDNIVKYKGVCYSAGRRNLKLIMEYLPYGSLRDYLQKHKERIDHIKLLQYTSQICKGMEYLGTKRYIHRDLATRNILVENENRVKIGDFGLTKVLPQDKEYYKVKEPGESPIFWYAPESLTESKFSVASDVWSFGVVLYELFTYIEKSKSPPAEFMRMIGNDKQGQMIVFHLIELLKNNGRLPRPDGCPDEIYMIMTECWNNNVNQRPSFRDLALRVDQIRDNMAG

[4] = Half life in mouse at 1 mg/kg, iv; format: ADME, organism-based; details: in vivo
[5] = MRT (0 to t) in mouse at 1 mg/kg, iv; format: ADME, organism-based; details: in vivo
[6] = Plasma protein binding in anti-CD40 induced immunodeficient Rag1 KO colitis mouse model; format: ADME, cell-free; details: read-out: PPB (converted)
[7] = Bioavailability in mouse at 30 mg/kg, IG; format: ADME, organism-based; details: in vivo, po
[8] = molecular target: CYP2C19 (Homo sapiens, UniProt P33261); test: Inhibition of CYP2C19 (unknown origin) at 1 uM relative to control; format: ADME
Sequence of CYP2C19 (P33261 whole entry): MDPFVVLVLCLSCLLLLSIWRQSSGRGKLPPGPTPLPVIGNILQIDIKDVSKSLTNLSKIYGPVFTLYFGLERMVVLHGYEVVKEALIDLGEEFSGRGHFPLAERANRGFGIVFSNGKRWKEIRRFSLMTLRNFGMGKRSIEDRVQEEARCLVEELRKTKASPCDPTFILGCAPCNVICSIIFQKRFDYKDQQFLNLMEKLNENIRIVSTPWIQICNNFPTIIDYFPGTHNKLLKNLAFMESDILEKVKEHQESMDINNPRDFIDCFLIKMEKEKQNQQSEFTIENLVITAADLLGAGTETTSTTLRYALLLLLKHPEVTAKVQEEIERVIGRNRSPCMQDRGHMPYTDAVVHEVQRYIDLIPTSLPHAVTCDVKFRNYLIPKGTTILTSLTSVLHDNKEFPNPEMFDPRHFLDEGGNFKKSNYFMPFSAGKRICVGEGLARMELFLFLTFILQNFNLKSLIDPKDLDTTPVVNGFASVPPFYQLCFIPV

[9] = molecular target: hERG (KCNH2) (Homo sapiens, UniProt Q12809); test: Inhibition of human ERG at 10 uM by patch clamp method relative to control; format: toxicity
Sequence of hERG (KCNH2) (Q12809 whole entry): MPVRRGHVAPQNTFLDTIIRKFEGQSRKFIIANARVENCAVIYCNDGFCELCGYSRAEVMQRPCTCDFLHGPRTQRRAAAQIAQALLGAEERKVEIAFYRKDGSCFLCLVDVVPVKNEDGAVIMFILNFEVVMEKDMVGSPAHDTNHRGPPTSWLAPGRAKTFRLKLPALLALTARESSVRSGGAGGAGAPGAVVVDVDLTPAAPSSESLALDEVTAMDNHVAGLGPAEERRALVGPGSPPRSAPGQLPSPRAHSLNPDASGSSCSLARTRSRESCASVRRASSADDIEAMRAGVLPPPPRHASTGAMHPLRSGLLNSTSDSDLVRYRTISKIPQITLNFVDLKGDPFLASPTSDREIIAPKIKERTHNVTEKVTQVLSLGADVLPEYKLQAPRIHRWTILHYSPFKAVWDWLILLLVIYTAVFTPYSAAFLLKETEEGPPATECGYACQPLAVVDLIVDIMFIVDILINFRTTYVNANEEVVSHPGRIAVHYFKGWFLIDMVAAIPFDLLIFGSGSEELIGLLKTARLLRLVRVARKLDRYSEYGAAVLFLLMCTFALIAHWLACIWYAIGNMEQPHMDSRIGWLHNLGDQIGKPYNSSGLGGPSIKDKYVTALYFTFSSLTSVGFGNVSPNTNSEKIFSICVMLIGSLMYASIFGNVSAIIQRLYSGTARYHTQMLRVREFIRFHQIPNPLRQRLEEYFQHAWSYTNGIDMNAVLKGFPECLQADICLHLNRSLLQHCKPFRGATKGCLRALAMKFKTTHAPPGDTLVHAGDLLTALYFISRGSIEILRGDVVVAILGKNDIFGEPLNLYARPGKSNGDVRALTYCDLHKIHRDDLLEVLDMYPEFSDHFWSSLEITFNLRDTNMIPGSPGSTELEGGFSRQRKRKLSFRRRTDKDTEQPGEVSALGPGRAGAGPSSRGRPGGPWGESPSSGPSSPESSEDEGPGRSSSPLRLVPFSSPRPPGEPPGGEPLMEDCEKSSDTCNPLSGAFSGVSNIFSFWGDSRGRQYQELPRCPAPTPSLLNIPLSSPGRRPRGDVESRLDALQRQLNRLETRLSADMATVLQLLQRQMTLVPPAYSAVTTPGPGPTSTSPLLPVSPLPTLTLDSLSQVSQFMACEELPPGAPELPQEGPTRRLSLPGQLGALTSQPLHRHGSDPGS

[10] = molecular target: JAK3/JAK1 (Homo sapiens, UniProt P23458+P52333); test: Inhibition of JAK1/3 dependent IL-2 stimulated STAT5 phosphorylation in CD3-positive T cells (unknown origin); format: cell-based, CD3-positive T cell
[11] = Toxicity in anti-CD40 induced immunodeficient Rag1 KO colitis mouse model assessed as body weight loss at 10 to 30 mg/kg, po bid administered for 6 days; format: organism-based; details: in vivo, 144 h, dose 10-30 mg/kg, time 6 day
[12] = Stability in mouse liver microsomes assessed as parent compound remaining measured after 60 mins; format: ADME, Microsome; details: read-out: Stability
[13] = AUC(0 to infinity) in mouse at 1 mg/kg, iv; format: ADME, organism-based; set-up: dose 1 mg/kg, route iv; details: in vivo
[14] = Stability in human liver microsomes assessed as parent compound remaining measured after 60 mins; format: ADME, Microsome; details: read-out: Stability
[15] = Tmax in mouse at 30 mg/kg, IG; format: ADME, organism-based; details: in vivo, po
[16] = Cmax in mouse at 30 mg/kg, IG; format: ADME, organism-based; set-up: dose 30 mg/kg, route ig; details: in vivo, po
[17] = MRT (0 to t) in mouse at 30 mg/kg, IG; format: ADME, organism-based; details: in vivo, po
[18] = molecular target: CYP2D6 (Homo sapiens, UniProt P10635); test: Inhibition of CYP2D6 (unknown origin) at 1 uM relative to control; format: ADME
[19] = molecular target: CYP3A4 (Homo sapiens, UniProt P08684); test: Inhibition of CYP3A4 (unknown origin) at 1 uM relative to control; format: ADME
Sequence of CYP3A4 (P08684 whole entry): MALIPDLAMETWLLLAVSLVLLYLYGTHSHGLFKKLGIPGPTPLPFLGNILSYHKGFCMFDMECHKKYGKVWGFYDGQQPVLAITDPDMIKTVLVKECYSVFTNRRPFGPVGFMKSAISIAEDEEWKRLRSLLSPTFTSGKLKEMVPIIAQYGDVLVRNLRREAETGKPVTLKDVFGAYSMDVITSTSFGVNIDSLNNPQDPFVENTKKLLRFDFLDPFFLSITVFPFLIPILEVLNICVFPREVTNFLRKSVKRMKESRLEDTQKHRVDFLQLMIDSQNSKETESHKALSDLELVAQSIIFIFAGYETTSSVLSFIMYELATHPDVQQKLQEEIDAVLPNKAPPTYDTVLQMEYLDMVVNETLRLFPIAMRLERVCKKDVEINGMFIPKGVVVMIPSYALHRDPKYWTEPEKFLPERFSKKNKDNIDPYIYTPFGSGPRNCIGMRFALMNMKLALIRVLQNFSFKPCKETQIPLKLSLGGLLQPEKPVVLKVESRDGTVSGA

[20] = Clearance in mouse at 1 mg/kg, iv; format: ADME, organism-based; details: in vivo
[21] = AUC(0 to infinity) in mouse at 30 mg/kg, IG; format: ADME, organism-based; set-up: dose 30 mg/kg, route ig; details: in vivo, po
[22] = C0 in mouse at 1 mg/kg, iv; format: ADME, organism-based; details: in vivo
[23] = molecular target: Non-receptor tyrosine-protein kinase TYK2 (Homo sapiens, UniProt P29597); test: Inhibition of TYK2 dependent IFNalpha-stimulated STAT3 phosphorylation in human Jurkat cells; format: cell-based
Sequence of Non-receptor tyrosine-protein kinase TYK2 (P29597 whole entry): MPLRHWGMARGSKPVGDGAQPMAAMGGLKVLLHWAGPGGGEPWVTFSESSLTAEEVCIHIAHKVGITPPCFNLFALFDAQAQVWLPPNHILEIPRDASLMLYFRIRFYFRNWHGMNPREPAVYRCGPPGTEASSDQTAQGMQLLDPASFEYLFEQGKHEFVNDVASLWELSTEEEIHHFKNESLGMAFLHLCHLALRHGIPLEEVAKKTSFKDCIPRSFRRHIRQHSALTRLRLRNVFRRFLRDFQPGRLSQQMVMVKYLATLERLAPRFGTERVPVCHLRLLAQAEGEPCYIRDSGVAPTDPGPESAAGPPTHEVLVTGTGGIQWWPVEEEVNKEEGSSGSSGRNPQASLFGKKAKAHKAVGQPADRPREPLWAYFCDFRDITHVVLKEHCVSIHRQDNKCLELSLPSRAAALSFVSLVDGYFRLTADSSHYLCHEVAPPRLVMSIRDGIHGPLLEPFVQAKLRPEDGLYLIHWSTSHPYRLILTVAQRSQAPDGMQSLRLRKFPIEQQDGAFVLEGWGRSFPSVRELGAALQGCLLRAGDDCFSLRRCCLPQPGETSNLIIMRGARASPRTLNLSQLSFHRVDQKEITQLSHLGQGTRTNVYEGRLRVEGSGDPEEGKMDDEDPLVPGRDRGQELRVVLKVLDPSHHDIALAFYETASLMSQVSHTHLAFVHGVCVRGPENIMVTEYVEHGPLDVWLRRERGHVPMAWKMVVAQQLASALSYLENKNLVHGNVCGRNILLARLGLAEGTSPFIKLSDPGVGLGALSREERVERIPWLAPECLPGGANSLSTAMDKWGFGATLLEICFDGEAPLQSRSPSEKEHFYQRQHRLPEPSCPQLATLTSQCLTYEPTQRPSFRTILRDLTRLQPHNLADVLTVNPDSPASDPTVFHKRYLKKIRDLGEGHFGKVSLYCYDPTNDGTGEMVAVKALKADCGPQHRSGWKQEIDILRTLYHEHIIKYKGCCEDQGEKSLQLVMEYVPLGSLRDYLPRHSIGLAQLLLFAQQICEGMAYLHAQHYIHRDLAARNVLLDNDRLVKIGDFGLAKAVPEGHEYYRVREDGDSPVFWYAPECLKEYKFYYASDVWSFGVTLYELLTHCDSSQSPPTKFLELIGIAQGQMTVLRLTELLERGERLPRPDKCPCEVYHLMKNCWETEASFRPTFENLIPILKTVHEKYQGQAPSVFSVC

[24] = Volume of distribution in mouse at 1 mg/kg, iv; format: ADME, organism-based; details: in vivo
[25] = Half life in mouse at 30 mg/kg, IG; format: ADME, organism-based; details: in vivo, po
[26] = molecular target: T2, CYP2B6 (Homo sapiens, UniProt P20813); test: Inhibition of CYP2B6 (unknown origin) at 1 uM relative to control; format: ADME
T2 sequence (P20813 whole entry): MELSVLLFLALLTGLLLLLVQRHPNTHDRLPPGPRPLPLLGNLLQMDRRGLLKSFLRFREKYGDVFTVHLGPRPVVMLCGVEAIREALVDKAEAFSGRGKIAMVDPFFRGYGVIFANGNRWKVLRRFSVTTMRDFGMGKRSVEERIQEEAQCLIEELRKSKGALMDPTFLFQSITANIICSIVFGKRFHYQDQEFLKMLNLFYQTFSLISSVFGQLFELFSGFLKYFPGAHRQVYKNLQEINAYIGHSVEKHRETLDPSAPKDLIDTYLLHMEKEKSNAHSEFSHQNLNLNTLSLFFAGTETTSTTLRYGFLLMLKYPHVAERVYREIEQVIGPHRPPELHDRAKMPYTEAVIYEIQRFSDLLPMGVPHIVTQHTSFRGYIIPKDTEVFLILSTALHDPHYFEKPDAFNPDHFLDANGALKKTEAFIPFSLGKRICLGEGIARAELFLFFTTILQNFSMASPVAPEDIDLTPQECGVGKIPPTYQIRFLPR

Sequence of CYP2C9 (P11712 whole entry): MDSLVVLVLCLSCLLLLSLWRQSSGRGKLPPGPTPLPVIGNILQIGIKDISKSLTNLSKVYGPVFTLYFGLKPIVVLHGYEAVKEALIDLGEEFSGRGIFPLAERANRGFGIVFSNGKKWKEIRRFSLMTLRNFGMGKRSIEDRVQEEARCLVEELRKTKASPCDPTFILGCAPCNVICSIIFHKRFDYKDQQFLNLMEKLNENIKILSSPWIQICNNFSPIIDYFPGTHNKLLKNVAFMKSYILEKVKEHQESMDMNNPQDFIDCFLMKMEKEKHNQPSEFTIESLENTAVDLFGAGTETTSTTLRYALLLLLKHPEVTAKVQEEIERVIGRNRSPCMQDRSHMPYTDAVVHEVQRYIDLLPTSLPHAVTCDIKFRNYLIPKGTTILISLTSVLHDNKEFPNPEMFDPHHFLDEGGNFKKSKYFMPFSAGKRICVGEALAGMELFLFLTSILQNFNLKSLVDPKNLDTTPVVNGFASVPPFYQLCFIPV

In the case of `[2H]C([2H])([2H])NC(=O)c1nnc(NC(=O)C2CC2)cc1Nc1cccc(C(=O)Nc2ccc(-c3ncn(C4CC4)n3)cc2)c1OC`, the inhibition at 1 µM [1] is reported as 7%, the inhibition at 1 µM [2] is reported as 1.18% and the IC50 [3] is reported as 2670 nM. For the same compound, the half-life [4] was 1.52 h, the MRT last [5] was 2.12 h and the fraction unbound [6] was 0.0022. For the same compound, the F [7] was 118.87%, the inhibition at 1 µM [8] was -5.42% and the inhibition at 10 µM [9] was 27.8%. The IC50 [10] was 972 nM, the Activity [11] was “Non-Toxic” and the remaining at 1 h [12] was 93.3%. The AUC [13] was 1694 ng·h/mL, the remaining at 1 h [14] was 106% and the Tmax [15] was 4 h. It also gave a Cmax [16] of 7100 ng/mL, an MRT last [17] of 5.21 h and an inhibition at 1 µM [18] of -9%. The inhibition at 1 µM [19] was 5.25%, the clearance [20] was 9.83 mL/min/kg and the AUC [21] was 171069 ng·h/mL. The C0 [22] was 702 ng/mL, the IC50 [23] was 4.8 nM and the Vd [24] was 1.29 L/kg. It also gave a half-life [25] of 14.7 h and an inhibition at 1 µM [26] of 16.9%.
